From patent US8993257B2, “System and method for studying epidermis samples ex vivo” (University of Rochester, priority 2012, dated 2015)

B1: IL4: human recombinant IL4, Th2 cytokine commonly found in atopic dermatitis (protein, UniProt P05112 25-153, looked up)
Interleukin-4: HKCDITLQEIIKTLNSLTEQKTLCTELTVTDIFAASKNTTEKETFCRAATVLRQFYSHHEKDTRCLGATAQQFHRHKQLIRFLKRLDRNLWGLAGLNSCPVKEANQSTLENFLERLKTIMREKYSKCSS

Tests used:
[1] = system: intact human epidermis samples; conditions: Histamine 100 μM; evaluated at 10, 20 and 30 minutes; epidermis isolated with dispase; FIG. 5
Description: The invention will allow measuring epidermal barrier integrity by evaluating transepithelial electric resistance (TEER), using a planar electrode (for example, Endohm-Snap; World Precision Instruments, Sarasota, Fla., USA), and a paracellular flux assay of for example, fluorescently labeled probes of different radii and sizes. Probes can be added to the upper well, and samples will be collected in the lower well over time to determine the paracellular flux. The amount of fluorescent probes that diffuse across the epidermis sample can be measured using an appropriate fluorometer or spectrophotometer.
The filter 206 of the original detachable ring 204 in the Snapwell™ (Corning, 3407) is replaced by a sandwich system 302 having two Plexiglas (or any other suitable material) inserts 304, with the epidermis/skin sample 306 lying in between them on a filter paper 308 (Nucleopore Track-etched, #110407; 13 mm diameter & pore: 0.4 μm) so that it covers the opening. The skin sample 306 is inserted with epidermis side up. Each of the inserts 304 has a hole 310 formed therein with a diameter of 0.3 cm and an area of 0.0707 cm^2. As in the conventional Snapwell™ system, the sandwich system is 302 is placed between an upper well 312 having a medium 314 and a lower well 316 having a medium 318. A volt-ohm meter 320 is connected between the two media. […]

[2] = system: barrier-disrupted human epidermis; test: TEER of tape stripped (barrier-disrupted) human epidermis in the system; assay type: cell-based; conditions: compared with media alone
Description: (§1) The Weck blade is held at a 30-45° angle from the donor skin (e.g. living subject or discarded skins from plastic surgery procedures) surface, while a gentle traction behind the blade is provided by the other hand. Using different depths (e.g. […]), based on the skin sample source (e.g. based on differences in epidermal depth in different anatomical areas as well as species-specific differences), we can effectively isolate intact, full thickness epidermal samples with minimal to no dermis (e.g. subepithelial tissue). The epidermis is removed using that Weck surgical blade, cut into smaller samples to fit the apparatus and placed in a calcium-containing buffer until it is mounted in the device.
(§2) We have also used the invention to test the effect of cytokines relevant to human disease on epidermal barrier function recovery. Human discarded skin was tape stripped to induce a barrier impairment, this barrier-disrupted epidermis was isolated using the Weck blade and placed into the system. Samples were than treated for 24 h with human recombinant IL17A, a prototypic cytokine commonly found within the skin lesions of psoriasis (FIG. 6) or the Th2 cytokines, IL4 and IL13, commonly found in atopic dermatitis (FIG. 7). After 24 h treatment with human recombinant IL17A (50 and 100 ng/ml), TEER was increased, and paracellular flux was reduced as compared with a sample treated with media alone. Those data indicated IL17A enhanced epidermal barrier recovery.

[3] = system: barrier-disrupted human epidermis; test: Paracellular flux across tape stripped (barrier-disrupted) human epidermis in the system; assay type: cell-based; conditions: compared with media alone
Description: as §1, §2

[4] = system: murine skin samples (wild type and STAT6 mice); test: Skin barrier recovery after in vivo tape stripping, murine skin samples mounted in the system; assay type: cell-based; conditions: Pam3CSK4 10 μM; wild type versus STAT6 mice, n=3 each; normalized to WT vehicle control; FIG. 8
Description: For very thin skin samples isolated from rodents or other small mammalians, curettage along the dermal surface of the biopsy can be performed with a blade to minimize the amount of dermis taken. Alternatively, skin can be incubated in ammonium thiocyanate and epidermis removed from dermis. Murine skin can be isolated from any anatomical area, defatted using a surgical blade, cut into smaller samples to mount in the apparatus.
We have also used the present invention in a murine model. Skin barrier recovery after in vivo tape stripping was evaluated in wild type mice as compared to genetically modified mice that expressed a constitutively activated form of STAT6 under the CD2 locus, that results in the enhanced expression of Th2 cytokines (IL-4 and IL-13). Skin samples were collected from the healthy, nonperturbed skin of the back or from an area of the back that underwent tape stripping. The dermis was removed by scraping with a surgical blade and skin samples were mounted in the system. We observed no differences in recovery between the two mice strains. […] All data are normalized to WT vehicle control group. In FIG. 8, ns: not significant; *P<0.05, **P<0.01, ***P<0.001. (WT, n=3; STAT6VT, n=3).

[5] = IL4 (50 ng/ml) and IL13 (50 ng/ml) given together, FIG. 7
[6] = IL17A 50 and 100 ng/ml, 24 h treatment, FIG. 6

Molecule	TEER [2, 5]	paracellular flux [3, 5]	further results
NCCc1c[nH]cn1 [Histamine]	–	–	paracellular flux of fluorescein [1]: enhanced
IL13: human recombinant IL13, Th2 cytokine commonly found in atopic dermatitis	reduced	increased	–
IL17A: human recombinant IL17A, a prototypic cytokine commonly found within the skin lesions of psoriasis	–	–	TEER [2, 6]: increased; paracellular flux [3, 6]: reduced
Pam3CSK4	–	–	skin barrier recovery [4]: greater recovery in wild type mice
B1	reduced	increased	–
